From patent publication US5389621A, “Method of enhancing the anticoagulant effects of aspirin using salicylamide” (University of Medicine and Dentistry of New Jersey, priority 1994, dated 1995)
Entries after “also recorded” stand apart in the source; their conditions may differ.

Columns and labels:
[1] = Tissue distribution of 14C radioactivity after 14C-salicylamide; assay type: in vivo, male Sprague-Dawley rats
Experimental: All animals were identified by ear punching. Food and water were provided ad libitum.
Forty-eight rats were divided into two groups.
Each group consisted of 24 rats and was further divided into 4 subgroups, 6 rats each, according to the following scheme:
The rats were fasted overnight. The drug(s) were prepared fresh, dissolved in 2.5 ml of deionized water and administered orally by gavage needle. The rats were allowed water ad libitum before and after the oral administration.
The different treatments were given according to the previous scheme and each rat received an amount of radioactivity equal to […] in the case of radioactive aspirin and 10 μCu in the case of radioactive salicylamide. For the low and high dose ASA treatments 3696 and 1848 dpm ^14 C-ASA/μg total ASA were used respectively. For SAM, 24.4 and 12.2 dpm ^14 C-SAM/ng total SAM were utilized for low and high dose treatments, respectively.
The rats were anesthetized by light diethyl ether inhalation.
The rest of the red blood cells were washed twice by adding 2 ml of physiological saline and were resuspended after each addition. The red blood cells were centrifuged at 3000 rpm (1800×g) for 10 minutes and 300 μl were pipetted in a scintillation vial for measurement of ^14 C radioactivity.
After collecting the blood sample, the rats were sacrificed immediately by a diethyl ether overdose. The following tissues were collected: liver, lung, kidney, heart, spleen, perinephric fat, brain, upper small intestine, stomach, pancreas, bone (femur and tibia), testis, skin and skeletal muscle. A sample of bone marrow was also collected (approximately20 mg).
300 mg tissue samples were placed in scintillation vials and 300 μl of 70% perchloric acid and 600 μl of 30% hydrogen peroxide were added to each vial and also to the vials containing the washed red blood cells aliquots. The vials were incubated at 75° C. for 1 hour in a shaking water bath and were tightly capped to prevent any loss of radioactivity by evaporation.
The vials were left to cool to room temperature for 15 minutes before 10 ml Aquasol-2 scintillation fluid was added to each vial. The total radioactivity was counted in a Beckman model 7500 LS spectrophotometer.

[2] = tested on: vascular cyclooxygenase; assay: 6-keto PG F1alpha production from thoracic aortic rings ex vivo; assay type: in vivo, male Sprague-Dawley rats; conditions: ASA 10 mg/kg or SAM 9 mg/kg, rat thoracic aortic rings ex vivo
Experimental: The method used was a modification of that used by Dejana et al. (1981). Male Sprague-Dawley rats were randomly treated with either ASA (10 mg/kg), SAM (9 mg/kg), ASA/SAM (10/9 mg/kg), or isotonic saline. The rats were fasted overnight before administration of the treatments. Half an hour following treatment, the rats were exsanguinated by heart puncture under ether anesthesia and the thoracic aorta was immediately isolated, cleaned of adventitia, and flushed in situ with 5 ml of isotonic saline. The vessel was then removed and 2 rings (each was nearly 7 mg wet weight corresponding to 0.5 cm length) were cut from the middle part. The rings were immediately incubated in 160 μl of Krebs-Hanseleit buffer solution adjusted to pH 7.4 and containing AA (final concentration 4.3 mM) in polyethylene tubes. The tubes were incubated at 37° C. in a shaking water bath for 10 minutes. The reaction was terminated by the addition of 40 μl of EDTA/ASA solution and the tubes were centrifuged at 1800× g for 15 minutes at 4° C. 100 μl of the supernatant were used for the measurement of 6-keto PG F1alpha content as an indicator of its unstable precursor, PG I2. A specific radioimmunoassay (Amersham International) (vide infra) was employed.
Radioimmunoassay Procedure for Measurement of Thromboxane B2 and 6-keto PG F1alpha
The procedure described below is for thromboxane A2. A similar procedure was used for 6-keto PG F1alpha measurement.
One way ANOVA followed by Scheffe multiple range test was employed for treatment comparisons. The accepted level of significance was p<0.05.

[3] = 1.5 hr, 14C-SAM 3 mg/kg, alone or with ASA 10 mg/kg
[4] = 1.5 hr, 14C-SAM 6 mg/kg, alone or with ASA 20 mg/kg

With `CC(=O)Oc1ccccc1C(=O)O` [ASA, acetylsalicylic acid] the “Change of tissue 14C in RBCs, bone, fat, skin, muscle, heart and others” value ([1]; 14C-SAM/ASA 3/10 mg/kg vs 14C-SAM alone) was “enhanced the tissue concentration; also recorded: significant elevation”, the “Change of tissue 14C, high dose” value ([1]; 14C-SAM/ASA high dose vs 14C-SAM alone, liver, lung, RBCs, and muscle or heart) was “significantly augmented” and the “Inhibition of PG I2 (6-keto PG F1alpha) / vascular cyclooxygenase” value [2] was “inhibited PG I2”.

With `N[14C](=O)c1ccccc1O` [^14 C-SAM] the “Organs with the highest 14C concentration” value ([1]; 14C-SAM alone or with ASA, low or high dose) was “kidney followed by the stomach”, the “14C radioactivity in RBCs” value [1, 3] was 103 ± 9 ngm/gm tissu and the “14C radioactivity in blood” value [1, 3] was 146 ± 20 ngm/gm tissu. For the same molecule, the “14C radioactivity in bone” value [1, 3] was 60 ± 7 ngm/gm tissu, the “14C radioactivity in bone marrow” value [1, 3] was 14 ± 2 ngm/50 mg bone marrow and the “14C radioactivity in brain” value [1, 3] was 27 ± 5 ngm/gm tissu. For the same molecule, the “14C radioactivity in fat” value [1, 3] was 41 ± 8 ngm/gm tissu, the “14C radioactivity in heart” value [1, 3] was 44 ± 5 ngm/gm tissu and the “14C radioactivity in kidney” value [1, 3] was 665 ± 152 ngm/gm tissu. For the same molecule, the “14C radioactivity in liver” value [1, 3] was 100 ± 12 ngm/gm tissu, the “14C radioactivity in lung” value [1, 3] was 91 ± 11 ngm/gm tissu and the “14C radioactivity in muscle” value [1, 3] was 56 ± 7 ngm/gm tissu. The “14C radioactivity in pancreas” value [1, 3] was 93 ± 9 ngm/gm tissu, the “14C radioactivity in plasma” value [1, 3] was 147 ± 24 ngm/gm tissu and the “14C radioactivity in skin” value [1, 3] was 107 ± 10 ngm/gm tissu. For the same molecule, the “14C radioactivity in spleen” value [1, 3] was 83 ± 20 ngm/gm tissu, the “14C radioactivity in stomach” value [1, 3] was 550 ± 154 ngm/gm tissu and the “14C radioactivity in testis (printed TESUIS)” value [1, 3] was 63 ± 7 ngm/gm tissu. For the same molecule, the “14C radioactivity in upper small intestine” value [1, 3] was 130 ± 27 ngm/gm tissu, the “14C radioactivity in washed RBCs” value [1, 3] was 77 ± 10 ngm/gm tissu and the “14C radioactivity in RBCs” value [1, 4] was 118 ± 22 ngm/gm tissu. For the same molecule, the “14C radioactivity in blood” value [1, 4] was 198 ± 32 ngm/gm tissu, the “14C radioactivity in bone” value [1, 4] was 153 ± 38 ngm/gm tissu and the “14C radioactivity in bone marrow” value [1, 4] was 29 ± 17 ngm/50 mg bone marrow. For the same molecule, the “14C radioactivity in brain” value [1, 4] was 33 ± 1 ngm/gm tissu, the “14C radioactivity in fat” value [1, 4] was 130 ± 14 ngm/gm tissu and the “14C radioactivity in heart” value [1, 4] was 106 ± 10 ngm/gm tissu. For the same molecule, the “14C radioactivity in kidney” value [1, 4] was 1358 ± 441 ngm/gm tissu, the “14C radioactivity in liver” value [1, 4] was 136 ± 12 ngm/gm tissu and the “14C radioactivity in lung” value [1, 4] was 218 ± 12 ngm/gm tissu. For the same molecule, the “14C radioactivity in muscle” value [1, 4] was 78 ± 3 ngm/gm tissu, the “14C radioactivity in pancreas” value [1, 4] was 147 ± 9 ngm/gm tissu and the “14C radioactivity in plasma” value [1, 4] was 237 ± 49 ngm/gm tissu. For the same molecule, the “14C radioactivity in skin” value [1, 4] was 240 ± 11 ngm/gm tissu, the “14C radioactivity in spleen” value [1, 4] was 200 ± 26 ngm/gm tissu and the “14C radioactivity in stomach” value [1, 4] was 832 ± 217 ngm/gm tissu. The “14C radioactivity in testis” value [1, 4] was 155 ± 17 ngm/gm tissu, the “14C radioactivity in upper small intestine” value [1, 4] was 268 ± 34 ngm/gm tissu and the “14C radioactivity in washed RBCs” value [1, 4] was 92 ± 12 ngm/gm tissu.
